Measured values reported in publication PMC6321168, “Comparative Study on Excretive Characterization of Main Components in Herb Pair Notoginseng-Safflower and Single Herbs by LC–MS/MS” (Pharmaceutics, 2018).

Assay: Urinary excretion study in rats after oral NS, SF or CNS (LC–MS/MS)
Format: in vivo
Conditions: for concentration at 2 h / concentration at 4 h / concentration at 8 h / concentration at 12 h / concentration at 24 h / concentration at 36 h / concentration at 48 h / concentration at 72 h / concentration at 96 h / concentration at 120 h / concentration at 6 h: male, Sprague Dawley, rat, urine, oral; for Accumulative excretion amount / Accumulative excretion percentage / Excretion amount: rat urine
Procedure, shortened: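 Fasted male rats (n = 6/group) received NS 60 mg/kg, SF 50 mg/kg, or both, by oral gavage. Urine was collected over 0–120 h in metabolic cages and analysed by negative-ESI MRM LC–MS/MS. Cumulative excretion is expressed as a percentage of the ingested dose.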

Structure (SMILES): CC(C)=CCC[C@](C)(O[C@@H]1O[C@H](CO)[C@@H](O)[C@H](O)[C@H]1O)[C@H]1CC[C@]2(C)[C@@H]1[C@H](O)C[C@@H]1[C@@]3(C)CC[C@H](O)C(C)(C)[C@@H]3[C@@H](O[C@@H]3O[C@H](CO)[C@@H](O)[C@H](O)[C@H]3O)C[C@]12C [ginsenoside Rg1]
- concentration at 2 h (60 mg/kg, oral NS 60 mg/kg, 2 h): 3360 ± 7020 ng/mL
- concentration at 4 h (60 mg/kg, oral NS 60 mg/kg, 4 h): 1680 ± 1800 ng/mL
- concentration at 8 h (60 mg/kg, oral NS 60 mg/kg, 8 h): 1140 ± 1230 ng/mL
- concentration at 12 h (60 mg/kg, oral NS 60 mg/kg, 12 h): 727 ± 171 ng/mL
- concentration at 24 h (60 mg/kg, oral NS 60 mg/kg, 24 h): 135 ± 209 ng/mL
- concentration at 36 h (60 mg/kg, oral NS 60 mg/kg, 36 h): 115 ± 151 ng/mL
- concentration at 48 h (60 mg/kg, oral NS 60 mg/kg, 48 h): 100 ± 171 ng/mL
- concentration at 72 h (60 mg/kg, oral NS 60 mg/kg, 72 h): 178 ± 382 ng/mL
- concentration at 96 h (60 mg/kg, oral NS 60 mg/kg, 96 h): 85 ± 159 ng/mL
- concentration at 120 h (60 mg/kg, oral NS 60 mg/kg, 120 h): 59 ± 105 ng/mL
- concentration at 2 h (oral CNS 110 mg/kg, 2 h): 1510 ± 1440 ng/mL
- concentration at 4 h (oral CNS 110 mg/kg, 4 h): 1690 ± 2340 ng/mL
- concentration at 6 h (oral CNS 110 mg/kg, 6 h): 544 ± 216 ng/mL
- concentration at 8 h (oral CNS 110 mg/kg, 8 h): 835 ± 697 ng/mL
- concentration at 12 h (oral CNS 110 mg/kg, 12 h): 789 ± 937 ng/mL
- concentration at 24 h (oral CNS 110 mg/kg, 24 h): 2350 ± 5830 ng/mL
- concentration at 36 h (oral CNS 110 mg/kg, 36 h): 228 ± 361 ng/mL
- concentration at 48 h (oral CNS 110 mg/kg, 48 h): 65 ± 82 ng/mL
- concentration at 72 h (oral CNS 110 mg/kg, 72 h): 93 ± 156 ng/mL
- concentration at 96 h (oral CNS 110 mg/kg, 96 h): 46 ± 53 ng/mL
- concentration at 120 h (oral CNS 110 mg/kg, 120 h): 80 ± 174 ng/mL
- concentration at 6 h (oral NS 60 mg/kg, 6 h): 1440 ± 1460 ng/mL
- Accumulative excretion amount (oral CNS 110 mg/kg, 2 h): 1.881 ± 1.001 µg
- Accumulative excretion percentage (oral CNS 110 mg/kg, 2 h): 0.066±0.032%
- Excretion amount (oral CNS 110 mg/kg, 2 h): 1.881 ± 1.001 µg
- Accumulative excretion amount (oral CNS 110 mg/kg, 4 h): 3.382 ± 2.188 µg
- Accumulative excretion percentage (oral CNS 110 mg/kg, 4 h): 0.111±0.072%
- Excretion amount (oral CNS 110 mg/kg, 4 h): 2.002 ± 1.609 µg
- Accumulative excretion amount (oral CNS 110 mg/kg, 6 h): 3.994 ± 2.061 µg
- Accumulative excretion percentage (oral CNS 110 mg/kg, 6 h): 0.132±0.073%
- Excretion amount (oral CNS 110 mg/kg, 6 h): 0.816 ± 0.264 µg
- Accumulative excretion amount (oral CNS 110 mg/kg, 8 h): 4.725 ± 2.486 µg
- Accumulative excretion percentage (oral CNS 110 mg/kg, 8 h): 0.155±0.084%
- Excretion amount (oral CNS 110 mg/kg, 8 h): 1.169 ± 0.913 µg
- Accumulative excretion amount (oral CNS 110 mg/kg, 12 h): 5.430 ± 2.374 µg
- Accumulative excretion percentage (oral CNS 110 mg/kg, 12 h): 0.188±0.080%
- Excretion amount (oral CNS 110 mg/kg, 12 h): 0.805 ± 0.300 µg
- Accumulative excretion amount (oral CNS 110 mg/kg, 24 h): 8.052 ± 5.572 µg
- Accumulative excretion percentage (oral CNS 110 mg/kg, 24 h): 0.263±0.182%
- Excretion amount (oral CNS 110 mg/kg, 24 h): 2.622 ± 5.710 µg
- Accumulative excretion amount (oral CNS 110 mg/kg, 36 h): 8.388 ± 5.927 µg
- Accumulative excretion percentage (oral CNS 110 mg/kg, 36 h): 0.274±0.195%
- Excretion amount (oral CNS 110 mg/kg, 36 h): 0.336 ± 0.421 µg
- Accumulative excretion amount (oral CNS 110 mg/kg, 48 h): 8.689 ± 6.056 µg
- Accumulative excretion percentage (oral CNS 110 mg/kg, 48 h): 0.285±0.202%
- Excretion amount (oral CNS 110 mg/kg, 48 h): 0.301 ± 0.361 µg
- Accumulative excretion amount (oral CNS 110 mg/kg, 72 h): 8.87 ± 6.051 µg
- Accumulative excretion percentage (oral CNS 110 mg/kg, 72 h): 0.293±0.206%
- Excretion amount (oral CNS 110 mg/kg, 72 h): 0.185 ± 0.312 µg
- Accumulative excretion amount (oral CNS 110 mg/kg, 96 h): 8.966 ± 6.090 µg
- Accumulative excretion percentage (oral CNS 110 mg/kg, 96 h): 0.292±0.204%
- Excretion amount (oral CNS 110 mg/kg, 96 h): 0.091 ± 0.106 µg
- Accumulative excretion amount (oral CNS 110 mg/kg, 120 h): 9.027 ± 6.117 µg
- Accumulative excretion percentage (oral CNS 110 mg/kg, 120 h): 0.292±0.206%
- Excretion amount (oral CNS 110 mg/kg, 120 h): 0.061 ± 0.081 µg
- Accumulative excretion amount (oral NS 60 mg/kg, 2 h): 4.985 ± 1.411 µg
- Accumulative excretion percentage (oral NS 60 mg/kg, 2 h): 0.142±0.045%
- Excretion amount (oral NS 60 mg/kg, 2 h): 4.985 ± 1.411 µg
- Accumulative excretion amount (oral NS 60 mg/kg, 4 h): 6.610 ± 2.052 µg
- Accumulative excretion percentage (oral NS 60 mg/kg, 4 h): 0.193±0.061%
- Excretion amount (oral NS 60 mg/kg, 4 h): 2.844 ± 0.973 µg
- Accumulative excretion amount (oral NS 60 mg/kg, 6 h): 9.709 ± 2.893 µg
- Accumulative excretion percentage (oral NS 60 mg/kg, 6 h): 0.285±0.086%
- Excretion amount (oral NS 60 mg/kg, 6 h): 3.616 ± 2.575 µg
- Accumulative excretion amount (oral NS 60 mg/kg, 8 h): 11.931 ± 4.568 µg
- Accumulative excretion percentage (oral NS 60 mg/kg, 8 h): 0.348±0.137%
- Excretion amount (oral NS 60 mg/kg, 8 h): 3.890 ± 2.477 µg
- Accumulative excretion amount (oral NS 60 mg/kg, 12 h): 15.061 ± 7.022 µg
- Accumulative excretion percentage (oral NS 60 mg/kg, 12 h): 0.439±0.200%
- Excretion amount (oral NS 60 mg/kg, 12 h): 3.130 ± 2.715 µg
- Accumulative excretion amount (oral NS 60 mg/kg, 24 h): 15.697 ± 7.182 µg
- Accumulative excretion percentage (oral NS 60 mg/kg, 24 h): 0.451±0.202%
- Excretion amount (oral NS 60 mg/kg, 24 h): 0.636 ± 0.590 µg
- Accumulative excretion amount (oral NS 60 mg/kg, 36 h): 16.042 ± 7.062 µg
- Accumulative excretion percentage (oral NS 60 mg/kg, 36 h): 0.463±0.204%
- Excretion amount (oral NS 60 mg/kg, 36 h): 0.402 ± 0.338 µg
- Accumulative excretion percentage (oral NS 60 mg/kg, 48 h): 0.465±0.204%
- Excretion amount (oral NS 60 mg/kg, 48 h): 0.285 ± 0.276 µg
- Accumulative excretion amount (oral NS 60 mg/kg, 72 h): 16.417 ± 7.147 µg
- Accumulative excretion percentage (oral NS 60 mg/kg, 72 h): 0.476±0.208%
- Excretion amount (oral NS 60 mg/kg, 72 h): 0.091 ± 0.014 µg
- Excretion amount (oral NS 60 mg/kg, 96 h): 0.062 ± 0.110 µg
- Excretion amount (oral NS 60 mg/kg, 120 h): 0.062 ± 0.148 µg
